# Data as given in US9714247B2, “Multiple kinase pathway inhibitors” (Mannkind Corporation, priority 2012, dated 2017).
# Read-outs that look alike come from different tables or passages of the source.
# Assays:
# [1] = tested on: DoHH2; experiment: CellTiter-Glo proliferation/viability assay; format: cell-based, human
# [2] = target: T1, Src (Homo sapiens (Human), UniProt P12931); conditions: read-out: Src IC50
# [3] = target: T2, Lyn (Homo sapiens (Human), UniProt P07948); experiment: biochemical; conditions: Lyn IC50
# [4] = tested on: Ramos; experiment: CellTiter-Glo proliferation/viability assay; format: cell-based, human
# [5] = tested on: RBL-2H3 cells; experiment: Degranulation (β-hexosaminidase release) colorimetric assay; format: cell-based; conditions: Rattus norvegicus, RBL-2H3, IgE / DNP-BSA
# Description: Crosslinking of IgE receptors leads to induction of intracellular signal transduction pathways and degranulation of mast cells and basophils leading to the release of histamine, serotonin and cytokines that constitutes an allergic reaction. […] One of the factors secreted on induction of degranulation is β-hexosaminidase. A colorimetric assay using 4-nitrophenyl N-acetyl-3-D-glucosaminide (Sigma-Aldrich) as a substrate was used to estimate the amount of enzyme secreted upon degranulation. In brief, RBL-2H3 (ATCC # CRL 2256) cells were plated overnight in the presence of IgE (monoclonal anti-dinitrophenyl antibody from Sigma-Aldrich). The next day, cells were treated with compounds in cell culture media, washed and treated with DNP-BSA for 1 hour (Sigma-Aldrich) in Tyrodes's buffer to induce degranulation. The level of 3-hexosaminidase was analyzed in cell-free supernates and cell lysates and the amount of β-hexosaminidase released was calculated. EC50 values were generated using varying concentrations of inhibitors. […] Thus amino naphthyridinones can be used to inhibit immunologic functions such as degranulation.
# [6] = tested on: SuDHL6; experiment: Proliferation/viability assay; format: cell-based; conditions: Table 10; B Lymphoma; read-out: Effect on Tumor Cell Growth EC50, SuDHL6
# [7] = tested on: PC3; experiment: Proliferation/viability assay; format: cell-based; conditions: Table 10; Prostate Ca; read-out: Effect on Tumor Cell Growth EC50, PC3
# [8] = tested on: Ramos; conditions: cited from earlier work
# [9] = target: BTK (Homo sapiens (Human), UniProt Q06187)
# [10] = tested on: PLCγ2 phosphorylation in Ramos cells; experiment: PLCγ2 phosphorylation by flow cytometry; format: cell-based, human; conditions: Homo sapiens, 0.3 uM, flow cytometry, anti-phospho PLCγ2 (Tyr759), read-out: pPLCγ % inhibition
# Method in brief: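 Ramos cells starved 18 h in 1% FBS, pretreated with inhibitor 2 h, then stimulated with anti-IgM (10 ug/ml final) plus 3.3 mM H2O2 for 2 min, then cross-linking F(ab) (10 ug/ml) plus H2O2 for 8 min. Fixed, permeabilized cells stained with PE anti-phospho-PLCγ2 (Tyr1217 or Tyr759), dead cells gated out; ED50 from geometric mean fluorescence over four inhibitor concentrations.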
# [11] = tested on: phosphorylation of SFKs in Ramos cells; experiment: SFK phosphorylation (Tyr 416) by flow cytometry; format: cell-based, human; conditions: Homo sapiens, 0.3 uM, flow cytometry, SFK phosphorylated at Tyr 416, read-out: pSRC % inhibition
# Experimental: Ramos cell lysates from stimulated and unstimulated cells were analyzed for the levels of phosphorylated SRC family members. As described in Example 82 (above), cells were pretreated for 2 hours with an amino naphthyridinones and then stimulated with anti-IgM antibody and H2O2, protein lysates were prepared, quantified and used for Western blotting. A commercially available antibody that detects Src phosphorylated at Tyr 416 (Cell Signalling) and may cross-react with other Src family members such as Lyn, Fyn, Lck, Yes and Hck when phosphorylated at equivalent sites was used for Western blot analysis. The molecular weights of SFK family members are quite similar (in the 55-60 kDa range) and different family members cannot be resolved by the conditions used for the Western blot. […] The procedure can be similarly adapted for flow cytometric analysis as with the PLC-γ2 assay in Example 82. Ramos cells were incubated with Compound 1 for 2 hrs in RPMI media with 5% FBS prior to stimulation stimulated with H2O2/anti-IgM/F(Ab) for 10 minutes. Cells were evaluated by FACS analysis using anti-pSRC antibody and FITC-conjugated goat anti-rabbit secondary antibody following overnight storage at 4° C. in BD perm/wash buffer.
# Ramos cells were prepared for flow cytometry analysis as described in example 82, and stained with a commercially available antibody that detects SFK phosphorylated at Tyr 416, followed by Alexa Fluor 488 conjugated secondary antibody. […] Thus amino naphthyridinones are useful in the inhibition of the phosphorylation of SFKs.
# [12] = target: T2, Lyn; conditions: read-out: Lyn IC50
# [13] = target: T1, Src; experiment: biochemical
# [14] = tested on: DoHH2; experiment: Apoptosis by flow cytometry (Annexin V / 7AAD); format: cell-based, human; conditions: Table 5; positive control, concentration not given
# Description: Activation of Tec family kinases including BTK, and/or Src kinase family members, regulates cell survival and cell death in normal B cells, lymphomas, and solid tumors. Apoptosis is a programmed cell death characterized by specific changes in cell morphology. […] Staurosporine was used as a positive control for apoptosis. […] Table 6 illustrates that several amino naphthyridinones induce significant apoptosis in DoHH2 cells.
# [15] = tested on: PC3; experiment: Apoptosis by flow cytometry (Annexin V / 7AAD); format: cell-based; conditions: Table 5; positive control, concentration not given
# [16] = tested on: Ramos; experiment: Apoptosis by flow cytometry (Annexin V / 7AAD); format: cell-based, human; conditions: Table 5; positive control, concentration not given
# [17] = Homo sapiens, DOHH-2, 48 hrs, read-out: DoHH2 EC50
# [18] = Homo sapiens, Ramos, 48 hrs, read-out: Ramos EC50
# [19] = Homo sapiens, Ramos, 48 h, read-out: Ramos EC50
# BTK, sequence (Q06187 whole entry): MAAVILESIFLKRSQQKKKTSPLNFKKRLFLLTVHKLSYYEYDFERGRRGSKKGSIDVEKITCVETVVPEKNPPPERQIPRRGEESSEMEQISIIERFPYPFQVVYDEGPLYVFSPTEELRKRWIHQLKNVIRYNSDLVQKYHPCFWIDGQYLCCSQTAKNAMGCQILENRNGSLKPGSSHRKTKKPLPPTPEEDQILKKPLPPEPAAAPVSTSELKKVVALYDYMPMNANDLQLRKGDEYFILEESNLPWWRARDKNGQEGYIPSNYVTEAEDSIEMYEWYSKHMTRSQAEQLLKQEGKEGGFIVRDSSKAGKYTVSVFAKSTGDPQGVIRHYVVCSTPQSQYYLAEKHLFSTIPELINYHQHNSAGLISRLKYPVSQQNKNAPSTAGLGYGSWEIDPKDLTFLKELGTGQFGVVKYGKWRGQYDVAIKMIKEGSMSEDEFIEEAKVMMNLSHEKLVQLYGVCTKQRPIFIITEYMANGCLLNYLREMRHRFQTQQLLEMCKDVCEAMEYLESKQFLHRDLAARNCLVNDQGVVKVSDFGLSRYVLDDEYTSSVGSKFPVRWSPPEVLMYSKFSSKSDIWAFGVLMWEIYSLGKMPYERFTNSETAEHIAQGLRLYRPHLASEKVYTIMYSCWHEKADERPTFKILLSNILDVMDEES
# T1 sequence (P12931 whole entry, looked up): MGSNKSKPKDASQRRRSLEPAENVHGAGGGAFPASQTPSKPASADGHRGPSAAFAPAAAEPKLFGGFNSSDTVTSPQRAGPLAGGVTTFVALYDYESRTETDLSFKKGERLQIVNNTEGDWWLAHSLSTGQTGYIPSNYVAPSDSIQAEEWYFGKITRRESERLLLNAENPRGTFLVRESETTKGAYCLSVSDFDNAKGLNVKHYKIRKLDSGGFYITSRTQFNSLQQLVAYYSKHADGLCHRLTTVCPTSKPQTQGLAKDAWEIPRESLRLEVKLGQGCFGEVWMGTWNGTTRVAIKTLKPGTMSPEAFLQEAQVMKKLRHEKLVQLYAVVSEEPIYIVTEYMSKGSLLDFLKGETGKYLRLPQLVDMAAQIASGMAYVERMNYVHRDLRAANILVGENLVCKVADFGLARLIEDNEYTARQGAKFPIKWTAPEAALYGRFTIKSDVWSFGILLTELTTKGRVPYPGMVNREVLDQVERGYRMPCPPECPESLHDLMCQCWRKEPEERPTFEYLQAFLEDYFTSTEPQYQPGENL
# T2 sequence (P07948 whole entry): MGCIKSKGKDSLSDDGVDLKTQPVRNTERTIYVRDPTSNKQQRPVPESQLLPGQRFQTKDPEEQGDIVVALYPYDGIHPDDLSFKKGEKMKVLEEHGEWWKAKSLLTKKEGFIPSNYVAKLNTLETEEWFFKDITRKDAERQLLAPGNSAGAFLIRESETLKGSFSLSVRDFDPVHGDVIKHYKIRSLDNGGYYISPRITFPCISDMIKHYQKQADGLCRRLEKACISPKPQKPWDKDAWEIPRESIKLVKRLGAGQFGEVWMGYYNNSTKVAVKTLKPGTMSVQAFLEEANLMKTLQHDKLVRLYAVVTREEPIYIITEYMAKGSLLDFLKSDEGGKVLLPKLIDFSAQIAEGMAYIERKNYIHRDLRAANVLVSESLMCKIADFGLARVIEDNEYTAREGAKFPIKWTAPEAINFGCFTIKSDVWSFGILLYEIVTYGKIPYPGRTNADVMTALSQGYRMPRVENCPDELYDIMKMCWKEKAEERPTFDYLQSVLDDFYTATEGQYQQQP
Compound,IC50 [2],EC50 [5],"EC50 [1, 17]","EC50 [4, 18]",inhibition at 0.3 µM [10],inhibition at 0.3 µM [11],IC50 ([9]; read-out: BTK IC50),IC50 [12],also measured
"O=c1c(-c2c(F)cccc2F)cc2cnc(Nc3ccc(F)cn3)cc2n1C1CCOC1 (single isomer, unassigned) [Compound 142, (R or S)-3-(2,6-difluorophenyl)-7-((5-fluoropyridin-2-yl)amino)-1-(tetrahydrofuran-3-yl)-1,6-naphthyridin-2(1H)-one]",< 0.1 µM,> 5 µM,–,–,–,–,–,–,"EC50 ([1]; 48 hrs, read-out: DoHH2 EC50): < 1 µM; IC50 [3]: < 0.1 µM; EC50 ([4]; 48 hrs, read-out: Ramos EC50): 1 to 10 µM"
CN1CCN(CCOc2cc(OC3CCOCC3)c3c(Nc4c(Cl)ccc5c4OCO5)ncnc3c2)CC1 [AZN0530],–,–,–,–,–,–,–,–,"EC50 ([1]; Table 10, B Lymphoma, read-out: Effect on Tumor Cell Growth EC50, DOHH2): 2.4 µM; EC50 [6]: 2.5 µM; EC50 ([4]; Table 10, B Lymphoma, read-out: Effect on Tumor Cell Growth EC50, Ramos): > 10 µM; EC50 [7]: > 10 µM; Resistance of Ramos to known kinase inhibitors [8]: resistant"
"CC(C)n1c(=O)c(-c2c(F)cccc2F)cc2cnc(Nc3ccc(F)cn3)cc21 [Compound 78, 3-(2,6-difluorophenyl)-7-((5-fluoropyridin-2-yl)amino)-1-isopropyl-1,6-naphthyridin-2(1H)-one]",–,> 5 µM,< 1 µM,> 10 µM,55%,8%,–,–,IC50 [9]: 0.1 to 1 µM
"CCn1c(=O)c(-c2c(F)cccc2F)cc2cnc(Nc3ccc(N(C)C4CCN(C)CC4)cn3)cc21 [Compound 95, 3-(2,6-difluorophenyl)-1-ethyl-7-((5-(methyl(1-methylpiperidin-4-yl)amino)pyridin-2-yl)amino)-1,6-naphthyridin-2(1H)-one]",< 0.1 µM,2.22 µM,< 1 µM,–,87%,56%,< 0.1 µM,< 0.1 µM,"EC50 [4, 19]: 1 to 10 µM"
"CCN(CC)CCOc1ccc(Nc2cc3c(cn2)cc(-c2ccc(F)cc2C)c(=O)n3CC)nc1 [Compound 99, 7-((5-(2-(diethylamino)ethoxy)pyridin-2-yl)amino)-1-ethyl-3-(4-fluoro-2-methylphenyl)-1,6-naphthyridin-2(1H)-one]",< 0.1 µM,2.99 µM,< 1 µM,1 to 10 µM,83%,40%,< 0.1 µM,< 0.1 µM,–
"CCN(CC)CCOc1ccc(Nc2cc3c(cn2)cc(-c2c(Cl)cccc2Cl)c(=O)n3CC)nc1 [Compound 101, 3-(2,6-dichlorophenyl)-7-((5-(2-(diethylamino)ethoxy)pyridin-2-yl)amino)-1-ethyl-1,6-naphthyridin-2(1H)-one]",< 0.1 µM,0.95 µM,< 1 µM,1 to 10 µM,92%,70%,< 0.1 µM,< 0.1 µM,–
"CCn1c(=O)c(-c2c(O)cccc2F)cc2cnc(Nc3ccc(N(C)C4CCN(C)CC4)cn3)cc21 [Compound 120, 1-ethyl-3-(2-fluoro-6-hydroxyphenyl)-7-((5-(methyl(1-methylpiperidin-4-yl)amino)pyridin-2-yl)amino)-1,6-naphthyridin-2(1H)-one]",< 0.1 µM,2.22 µM,< 1 µM,1 to 10 µM,87%,57%,< 0.1 µM,< 0.1 µM,–
"COCCn1c(=O)c(-c2c(F)cccc2F)cc2cnc(Nc3ccc(N(C)C4CCN(C)CC4)cn3)cc21 [Compound 129, 3-(2,6-difluorophenyl)-1-(2-methoxyethyl)-7-((5-(methyl(1-methylpiperidin-4-yl)amino)pyridin-2-yl)amino)-1,6-naphthyridin-2(1H)-one]",< 0.1 µM,> 5 µM,< 1 µM,1 to 10 µM,88%,66%,< 0.1 µM,< 0.1 µM,–
"O=c1c(-c2c(F)cccc2F)cc2cnc(Nc3ccc(F)cn3)cc2n1CCN1CCOCC1 [Compound 133, 3-(2,6-difluorophenyl)-7-((5-fluoropyridin-2-yl)amino)-1-(2-morpholinoethyl)-1,6-naphthyridin-2(1H)-one]",< 0.1 µM,5.49 µM,< 1 µM,> 10 µM,–,–,< 0.1 µM,< 0.1 µM,–
"CN1CCN(CCn2c(=O)c(-c3c(F)cccc3F)cc3cnc(Nc4ccc(F)cn4)cc32)CC1 [Compound 134, 3-(2,6-difluorophenyl)-7-((5-fluoropyridin-2-yl)amino)-1-(2-(4-methylpiperazin-1-yl)ethyl)-1,6-naphthyridin-2(1H)-one]",< 0.1 µM,3.11 µM,< 1 µM,1 to 10 µM,80%,44%,< 0.1 µM,< 0.1 µM,–
"CC(C)n1c(=O)c(-c2c(F)cccc2F)cc2cnc(Nc3ccc(N(C)C4CCN(C)CC4)cn3)cc21 [Compound 137, 3-(2,6-difluorophenyl)-1-isopropyl-7-((5-(methyl(1-methylpiperidin-4-yl)amino)pyridin-2-yl)amino)-1,6-naphthyridin-2(1H)-one]",< 0.1 µM,1.14 µM,< 1 µM,–,98%,81%,< 0.1 µM,< 0.1 µM,"EC50 [4, 19]: 1 to 10 µM"
"CN1CC[C@H](n2c(=O)c(-c3c(F)cccc3F)cc3cnc(Nc4ccc(F)cn4)cc32)C1 [Compound 150, (S)-3-(2,6-difluorophenyl)-7-((5-fluoropyridin-2-yl)amino)-1-(1-methylpyrrolidin-3-yl)-1,6-naphthyridin-2(1H)-one]",–,> 5 µM,1 to 10 µM,–,–,–,–,–,"IC50 [13]: 0.1 to 1 µM; IC50 [3]: 0.1 to 1 µM; EC50 [4, 19]: > 10 µM"
"CN1CC[C@@H](n2c(=O)c(-c3c(F)cccc3F)cc3cnc(Nc4ccc(F)cn4)cc32)C1 [Compound 152, (R)-3-(2,6-difluorophenyl)-7-((5-fluoropyridin-2-yl)amino)-1-(1-methylpyrrolidin-3-yl)-1,6-naphthyridin-2(1H)-one]",–,> 5 µM,< 1 µM,–,–,–,–,–,"IC50 [13]: 0.1 to 1 µM; IC50 [3]: 0.1 to 1 µM; EC50 [4, 19]: > 10 µM"
"CN[C@@H]1C[C@H]2O[C@@](C)([C@@H]1OC)n1c3ccccc3c3c4c(c5c6ccccc6n2c5c31)C(=O)NC4 [staurosporine, Staurosporine, reference compound]",–,–,–,–,–,–,–,–,Percent Apoptosis DOHH2 [14]: 95.86%; Percent Apoptosis PC3 [15]: 47.16%; Percent Apoptosis Ramos [16]: 73.74%
